Test results published in patent publication US20090209577A1, “Novel Triazolopyridine Compounds” (PFIZER INC., priority 2004, published 2009).
Where a name gives a salt, the structure may show the parent alone.

Each compound was assayed against T1, human p38 kinase alpha (Homo sapiens, UniProt Q16539) (assay: p38 kinase in vitro assay (PHAS-I / 32P-ATP format or EGFRP / 33P-ATP format)). Conditions: activated human p38 kinase alpha, 50 μM unlabeled ATP; two assay formats, table does not say which.
T1 construct: The coding region of the human p38a cDNA was obtained by PCR-amplification from RNA isolated from the human monocyte cell line THP.1; made in house; host or cells: E. coli DH10B
T1 sequence (Q16539 whole entry): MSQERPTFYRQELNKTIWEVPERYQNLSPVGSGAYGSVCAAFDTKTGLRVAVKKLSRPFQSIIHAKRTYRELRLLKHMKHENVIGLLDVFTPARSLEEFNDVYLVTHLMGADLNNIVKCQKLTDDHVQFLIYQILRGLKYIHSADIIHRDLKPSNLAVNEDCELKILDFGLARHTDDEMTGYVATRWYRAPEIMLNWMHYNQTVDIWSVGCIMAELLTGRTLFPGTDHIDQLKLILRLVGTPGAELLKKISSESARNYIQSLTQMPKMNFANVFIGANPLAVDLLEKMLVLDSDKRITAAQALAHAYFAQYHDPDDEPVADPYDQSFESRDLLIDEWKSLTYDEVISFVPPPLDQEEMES
Assay type: biochemical
Description: The ability of compounds to inhibit human p38 kinase alpha was evaluated using two in vitro assay methods. In the first method, activated human p38 kinase alpha phosphorylates a biotinylated substrate, PHAS-I (phosphorylated heat and acid stable protein-insulin inducible), in the presence of gamma ^32P-ATP (^32P-ATP). PHAS-I was biotinylated prior to the assay and provides a means of capturing the substrate, which is phosphorylated during the assay. p38 Kinase was activated by MKK6. Compounds were tested in 10 fold serial dilutions over the range of 100 μM to 0.001 μM using 1% DMSO. Each concentration of inhibitor was tested in triplicate.
All reactions were carried out in 96 well polypropylene plates. Each reaction well contained 25 mM HEPES pH 7.5, 10 mM magnesium acetate and 50 μM unlabeled ATP. Activation of p38 was required to achieve sufficient signal in the assay. Biotinylated PHAS-1 was used at 1-2 μg per 50 μl reaction volume, with a final concentration of 1.5 μM. Activated human p38 kinase alpha was used at 1 μg per 50 μl reaction volume representing a final concentration of 0.3 μM. Gamma ^32P-ATP was used to follow the phosphorylation of PHAS-1. ^32P-ATP has a specific activity of 3000 Ci/mmol and was used at 1.2 μCi per 50 μl reaction volume. The reaction proceeded either for one hour or overnight at 30° C.
Following incubation, 20 μl of reaction mixture was transferred to a high capacity streptavidin coated filter plate (SAM-streptavidin-matrix, Promega) prewetted with phosphate buffered saline. The transferred reaction mix was allowed to contact the streptavidin membrane of the Promega plate for 1-2 minutes. Following capture of biotinylated PHAS-1 with ^32P incorporated, each well was washed to remove unincorporated ^32P-ATP three times with 2M NaCl, three washes of 2M NaCl with 1% phosphoric, three washes of distilled water and finally a single wash of 95% ethanol. Filter plates were air-dried and 20 μl of scintillant was added. The plates were sealed and counted.
A second assay format was also employed that is based on p38 kinase alpha induced phosphorylation of EGFRP (epidermal growth factor receptor peptide, a 21 mer) in the presence ^33P-ATP. Compounds were tested in 10 fold serial dilutions over the range of 100 μM to 0.001 μM in 1% DMSO. Each concentration of inhibitor was tested in triplicate. Compounds were evaluated in 50 μl reaction volumes in the presence of 25 mM Hepes pH 7.5, 10 mM magnesium acetate, 4% glycerol, 0.4% bovine serum albumin, 0.4 mM DTT, 50 μM unlabeled ATP, 25 μg EGFRP (200 μM), and 0.05 μCi ^33P-ATP. Reactions were initiated by addition of 0.09 μg of activated, purified human GST-p38 kinase alpha. Activation was carried out using GST-MKK6 (5:1, p38:MKK6) for one hour at 30° C. in the presence of 50 μM ATP. Following incubation for 60 minutes at room temperature, the reaction was stopped by addition of 150 μl of AG 1×8 resin in 900 mM sodium formate buffer, pH 3.0 (1 volume resin to 2 volumes buffer). The mixture was mixed three times with pipetting and the resin was allowed to settle. A total of 50 μl of clarified solution head volume was transferred from the reaction wells to Microlite-2 plates. 150 μl of Microscint 40 was then added to each well of the Microlite plate, and the plate was sealed, mixed, and counted.
The above protocol assays were used to determine the IC50 values for compounds in Examples 1-71 above.

| IC50 | SMILES |
| --- | --- |
| 443 nM | OCC(O)c1ccc(-c2nnc3ccc(Cc4ccc(F)cc4F)cn23)cc1 (stereo not drawn) [Example 62, 1-{4-[6-(2,4-difluorobenzyl)[1,2,4]triazolo[4,3-a]pyridin-3-yl]phenyl}ethane-1,2-diol trifluoroacetate] |
| 699 nM | CC(C)c1nnc2ccc(Cc3ccccc3F)cn12 [Example 67, 6-(2-fluorobenzyl)-3-isopropyl[1,2,4]triazolo[4,3-a]pyridine] |
| 26.1 nM | CC(C)c1nnc2ccc(Cc3ccc(F)cc3F)cn12 [8 (step 1), 6-(2,4-difluorobenzyl)-3-isopropyl[1,2,4]triazolo[4,3-a]pyridine] |
| > 100000 nM | CC(C)c1nnc2ccc(S(=O)(=O)c3ccc(F)cc3F)cn12 [Example 61, 6-[(2,4-difluorophenyl)sulfonyl]-3-isopropyl[1,2,4]triazolo[4,3-a]pyridine] |
| 13300 nM | Fc1cccc(F)c1-c1nnc2ccc(Br)cn12 [Example 40, 6-bromo-3-(2,6-difluorophenyl)[1,2,4]triazolo[4,3-a]pyridine] |
| 33.3 nM | Cc1cc(CNCCO)ccc1-c1nnc2ccc(Sc3ccc(F)cc3F)cn12 [Example 45, 2-[(4-{6-[(2,4-difluorophenyl)thio][1,2,4]triazolo[4,3-a]pyridin-3-yl}-3-methylbenzyl)amino]ethanol dihydrochloride] |
| > 100000 nM | CC(C)(C)c1nnc2ccc(O)c(Cc3ccc(F)cc3F)n12 [Example 13, 3-tert-butyl-5-(2,4-difluorobenzyl)[1,2,4]triazolo[4,3-a]pyridin-6-ol] |
| 21600 nM | CC(C)(C)c1nnc2ccc(Cc3ccc(Cl)nc3)cn12 [Example 10, 3-tert-butyl-6-[(6-chloropyridin-3-yl)methyl][1,2,4]triazolo[4,3-a]pyridine] |
| 122 nM | CC(C)(C)c1nnc2ccc(Cc3ccc(F)cc3F)cn12 [Example 70, 3-tert-butyl-6-(2,4-difluorobenzyl)[1,2,4]triazolo[4,3-a]pyridine] |

The next lines start with the compound.

| SMILES | IC50 |
| --- | --- |
| NC(=O)c1cccc(-c2nnc3ccc(C(=O)c4ccc(F)cc4F)cn23)c1 [Example 30, 3-[6-(2,4-difluorobenzoyl)[1,2,4]triazolo[4,3-a]pyridin-3-yl]benzamide] | > 100000 nM |
| Cc1cc(C(O)CO)ccc1-c1nnc2ccc(Sc3ccc(F)cc3F)cn12 (stereo not drawn) [45 (step 4), 1-(4-{6-[(2,4-difluorophenyl)thio][1,2,4]triazolo[4,3-a]pyridin-3-yl}-3-methylphenyl)ethane-1,2-diol hydrochloride] | 28.3 nM |
| COC(=O)c1ccc(C)c(-c2nnc3ccc(/C=C/c4ccc(F)cc4F)cn23)c1 [Example 16, methyl 3-{6-[(E)-2-(2,4-difluorophenyl)vinyl][1,2,4]triazolo[4,3-a]pyridin-3-yl}-4-methylbenzoate] | 17.3 nM |
| CC(=O)OCC(=O)N1CCC(c2nnc3ccc(Sc4ccc(F)cc4F)cn23)CC1 [44 (step 4), 2-(4-{6-[(2,4-difluorophenyl)thio][1,2,4]triazolo[4,3-a]pyridin-3-yl}piperidin-1-yl)-2-oxoethyl acetate hydrochloride] | 367 nM |
| O=C(NCCO)c1ccc(-c2nnc3ccc(Sc4ccc(F)cc4F)cn23)cc1 [Example 25, 4-{6-[(2,4-difluorophenyl)thio][1,2,4]triazolo[4,3-a]pyridin-3-yl}-N-(2-hydroxyethyl)benzamide] | 93.6 nM |
| CC(C)(C)c1nnc2n1CC(c1ocnc1-c1cc(F)c(F)cc1F)CC2 (stereo not drawn) [Example 14, 3-tert-butyl-6-[4-(2,4,5-trifluorophenyl)-1,3-oxazol-5-yl]-5,6,7,8-tetrahydro[1,2,4]triazolo[4,3-a]pyridine] | 786 nM |
